Series [1] relates to DU145. The experiment in a line: MTT cytotoxicity assay, DU145 prostate cancer cells. It is filed as cell-based, human. As to conditions: for IC50: Homo sapiens, DU-145, DU145 prostate cancer cells, MTT; for SI (DU145): selectivity index relative to normal human fibroblasts HSF1184. The method, then:
(§1) Three different cancer cell lines; namely, DU145 derived from prostate cancer cells (American Type Culture Collection No. HTB-81), HepG2 derived from human liver cancer cells (American Type Culture Collection No. HB-8065), MBA-MB-231 derived from breast cancer cells (American Type Culture Collection No. HTB-26) and normal human fibroblasts (HSF1184) were grown and cultivated according to our previously described method. Briefly, cells were seeded in Dulbecco′s modified Eagle’s media (DMEM) supplemented with 10% heat-inactivated fetal bovine serum (FBS), 100 IU/mL penicillin, […] and 2 mM glutamine. The cells were maintained in a humidified atmosphere with 5% CO2 at 37 °C for 8 days, with subsequent media renewal. Then, cells were plated in a 96-well flat bottom plate at a concentration of 10^4 cells/well in fresh complete growth medium for 24 h and maintained in 37 °C in a 5% CO2-humidified incubator.
(§2) Cells in 96-well flat bottom plates were first serum-starved for 4 h by replacing cultured media with fresh medium (without serum). All synthesized compounds were properly dissolved in dimethyl sulfoxide (DMSO) to produce a stock concentration of 0.1 M. Cells were incubated with a range of different concentrations of the compounds we were testing (0–1000 μM) to give a final volume of 300 µL per well. In comparison, cells were incubated either alone with DMSO (negative control) or with 5-fluorouracil as a positive control. DMSO was used as a vehicle for the dissolution of the tested compounds and its final concentration in cultured media was less than 0.1%. Triplicate wells were designed for each individual dose. The compounds we synthesized were evaluated for in-vitro cytotoxicity properties via the standard 3-(4,5-dimethythiazol-2-yl)-2,5-diphenyl tetrazolium bromide (MTT) assay accordingly to our previously-reported work. The normal human fibroblast line (HSF1184) was used as a standard reference for the measurement of selectivity indexes (SIs) relative to cancer cell lines. The IC50 values and SIs were calculated accordingly.

Series [2] concerns HepG2. Kind of series: MTT cytotoxicity assay, HepG2 liver cancer cells. It is filed as cell-based, human. As to conditions: for IC50: MTT; for SI (HepG2): selectivity index relative to normal human fibroblasts HSF1184. On the procedure: as §1, §2
In series [3] the test system is MDA-MB-231. Kind of series: MTT cytotoxicity assay, MDA-MB-231 breast cancer cells. It is filed as cell-based, human. The note with it: for IC50: Homo sapiens, MDA-MB-231 breast cancer cells, MTT; for SI (MDA-MB-231): selectivity index relative to normal human fibroblasts HSF1184. On the procedure:
as §1, §2

Series [4] relates to HSF1184. Kind of series: MTT cytotoxicity assay, normal human fibroblasts HSF1184. The note with it: for IC50: Fibroblast. The class given is cell-based. The method, then:
as §1, §2

Series [5] deals with HepG2, DU145 and MBA-MB-231 cancer cell lines. Kind of series: MTT cytotoxicity, stated jointly for the three cancer cell lines. It is filed as cell-based. As to conditions: Homo sapiens; summary statement for HepG2, DU145 and MBA-MB-231; read-out: IC50 against all three cancer cell lines. The method, then:
as §1, §2

Setting [6] is: Homo sapiens, HepG2, HepG2 liver cancer cells.

Consider `O=c1[nH]cc(F)c(=O)[nH]1` [5-fluorouracil, reference compound], for which the IC50 in series [1] worked out at 1.92 ± 0.24 µM; in series [2] (setting [6]) it was 1.65 ± 0.09 µM; in series [3], 2.21 ± 0.28 µM; in series [4] it was 185.5 ± 0.48 µM. Also, the “SI (DU145)” value in series [1] is 96.60. The “SI (HepG2)” value in series [2] worked out at 112.41. Moreover, the “SI (MDA-MB-231)” value in series [3] was 83.93.

Take `COc1nc(-c2cc(Cl)sc2Cl)cc(-c2ccccc2)c1C#N` [5a, 6-(2,5-dichlorothiophen-3-yl)-2-methoxy-4-phenylpyridine-3-carbonitrile]: the IC50 in series [1] was > 100 µM; in series [2] (setting [6]), 49.6 ± 0.51 µM; in series [3] it was 21.2 ± 0.37 µM; in series [4] it was 82.39 ± 0.04 µM; in series [5], > 100 µM.

With `COc1nc(-c2cc(Cl)sc2Cl)cc(-c2ccc(C)cc2)c1C#N` [5b, 6-(2,5-dichlorothiophen-3-yl)-2-methoxy-4-p-tolylpyridine-3-carbonitrile], the IC50 in series [1] was > 100 µM; in series [2] (setting [6]), 9.48 ± 0.63 µM; in series [3], > 100 µM; in series [4] it was 114.5 ± 0.38 µM; in series [5] it was > 100 µM.

The compound `COc1nc(-c2cc(Cl)sc2Cl)cc(-c2ccc(Cl)cc2)c1C#N` [5c, 4-(4-chlorophenyl)-6-(2,5-dichlorothiophen-3-yl)-2-methoxypyridine-3-carbonitrile] yielded a melting point of 195 to 196 °C. Further, in series [1], the midpoint of inhibition, the IC50, lay at 42.36 ± 0.21 µM and the “SI (DU145)” value stood at 2.18. In addition, the IC50 in series [2] (setting [6]) is > 100 µM. For the same compound, in series [3], the 50% inhibitory concentration (IC50) amounted to 28.3 ± 0.42 µM and the “SI (MDA-MB-231)” value is on record as 3.26. The compound also came in with a half-maximal inhibitory concentration (IC50) in series [4] of 92.38 ± 0.38 µM. The IC50 in series [5] is > 100 µM.

In turn, `COc1nc(-c2cc(Cl)sc2Cl)cc(-c2ccc(Br)cc2)c1C#N` [5d, 4-(4-bromophenyl)-6-(2,5-dichlorothiophen-3-yl)-2-methoxypyridine-3-carbonitrile] displayed a melting point of 214 to 215 °C. In series [1], the midpoint of inhibition, the IC50, lay at 3.63 ± 0.17 µM and the “SI (DU145)” value was 116.65. Further, the midpoint of inhibition in series [2] (HepG2 liver cancer cells), the IC50, lay at 1.62 ± 0.15 µM. This compound also gave an IC50 in series [2] (setting [6]) of 1.53 µM. The “SI (HepG2)” value in series [2] amounted to 261.39. Moreover, in series [3], the IC50 is 2.59 ± 0.04 µM and the “SI (MDA-MB-231)” value stood at 163.49. For the same compound, in series [4], the “IC50 Values HSF1184” value was “high” and half-maximal inhibition (IC50) required 423.4 ± 0.49 µM. The IC50 in series [5] lay in the range of 1 to 5 µM.

As to `COc1cccc(-c2cc(-c3cc(Cl)sc3Cl)nc(OC)c2C#N)c1` [5f, 6-(2,5-dichlorothiophen-3-yl)-2-methoxy-4-(3-methoxyphenyl)pyridine-3-carbonitrile], the melting point fell in the range of 179 to 180 °C. In series [1], the IC50 was found to be 27.4 ± 0.63 µM and the “SI (DU145)” value was determined as 3.48. Besides, in series [2] (setting [6]), the IC50 came to 18.3 ± 0.31 µM. Moreover, in series [2], the “SI (HepG2)” value worked out at 5.21. For the same compound, in series [3], 43.49 ± 0.06 µM corresponded to half-maximal inhibition (IC50) and the “SI (MDA-MB-231)” value turned out to be 2.20. Also, it took 95.49 ± 0.29 µM to reach half-maximal inhibition in series [4] (IC50).

Take `COc1nc(-c2cc(Cl)sc2Cl)cc(-c2cccc([N+](=O)[O-])c2)c1C#N` [5g, 6-(2,5-dichlorothiophen-3-yl)-2-methoxy-4-(3-nitrophenyl)pyridine-3-carbonitrile]: the IC50 in series [1] was 4.97 ± 0.35 µM; in series [2] (setting [6]), 2.11 ± 0.26 µM; in series [3], 1.93 ± 0.03 µM; in series [4], 135.6 ± 0.55 µM; in series [5], 1 to 5 µM. In addition, in series [4], the “IC50 Values HSF1184” value is “high”.

As to `COc1nc(-c2cc(Cl)sc2Cl)cc(-c2ccc([N+](=O)[O-])cc2)c1C#N` [5h, 6-(2,5-dichlorothiophen-3-yl)-2-methoxy-4-(4-nitrophenyl)pyridine-3-carbonitrile], the melting point is 204 to 205 °C. In addition, in series [1], the IC50 came out at 1.77 ± 0.38 µM and the “SI (DU145)” value stood at 105.93. Also, the IC50 in series [2] (setting [6]) came out at 1.53 ± 0.38 µM. Besides, the “SI (HepG2)” value in series [2] is recorded as 122.54. For the same compound, in series [3], 2.14 ± 0.06 µM corresponded to half-maximal inhibition (IC50) and the “SI (MDA-MB-231)” value is 87.61. Also, in series [4], the “IC50 Values HSF1184” value is “high” and the IC50 worked out at 187.49 ± 0.14 µM. Also, the IC50 in series [5] was in the range of 1 to 5 µM.

As for `COc1ccc(-c2cc(-c3cc(Cl)sc3Cl)nc(OC)c2C#N)cc1Br` [5i, 4-(3-bromo-4-methoxyphenyl)-6-(2,5-dichlorothiophen-3-yl)-2-methoxypyridine-3-carbonitrile], the IC50 in series [1] is 1.82 ± 0.21 µM; in series [2] (HepG2 liver cancer cells) it was 1.72 ± 0.42 µM; in series [2] (setting [6]), 1.53 µM; in series [3], 1.38 ± 0.03 µM; in series [4], 234.5 ± 0.27 µM; in series [5], 1 to 5 µM. In series [4], the “IC50 Values HSF1184” value is “high”.

For the compound `COc1cc(-c2ccccc2)cc(-c2cc(Cl)sc2Cl)n1` [6a, 2-(2,5-dichlorothiophen-3-yl)-6-methoxy-4-phenylpyridine], the melting point was in the range of 127 to 128 °C. Also, in series [1], the IC50 was determined as 53.49 ± 0.02 µM and the “SI (DU145)” value is listed as 1.67. The half-inhibitory concentration (IC50) in series [2] (setting [6]) amounted to 32.31 ± 0.23 µM. Moreover, the “SI (HepG2)” value in series [2] is given as 2.77. In series [3], inhibition was half-maximal at 15.3 ± 0.41 µM (IC50) and the “SI (MDA-MB-231)” value amounted to 5.82. Moreover, 89.34 ± 0.55 µM corresponded to half-maximal inhibition in series [4] (IC50).

In turn, `COc1cc(-c2ccc(C)cc2)cc(-c2cc(Cl)sc2Cl)n1` [6b, 2-(2,5-dichlorothiophen-3-yl)-6-methoxy-4-p-tolylpyridine] showed a melting point of 150 to 151 °C. In series [1], the IC50 was 64.59 ± 0.08 µM and the “SI (DU145)” value is 1.59. Besides, half-maximal inhibition in series [2] (setting [6]) (IC50) required 39.5 ± 0.58 µM. In addition, the “SI (HepG2)” value in series [2] was 2.59. In addition, in series [3], the IC50 came out at 52.39 ± 0.31 µM and the “SI (MDA-MB-231)” value turned out to be 1.95. Further, in series [4], it took 102.4 ± 0.3 µM to reach half-maximal inhibition (IC50).

In the case of `COc1cc(-c2ccc(Cl)cc2)cc(-c2cc(Cl)sc2Cl)n1` [6c, 4-(4-chlorophenyl)-2-(2,5-dichlorothiophen-3-yl)-6-methoxypyridine], the IC50 in series [1] was found to be 21.65 ± 0.12 µM; in series [2] (setting [6]) it was 11.3 ± 0.22 µM; in series [4], 112.4 ± 0.47 µM.

Compound `COc1cc(-c2ccc(Br)cc2)cc(-c2cc(Cl)sc2Cl)n1` [6d, 4-(4-bromophenyl)-2-(2,5-dichlorothiophen-3-yl)-6-methoxypyridine] displayed a melting point of 148 to 149 °C. Also, in series [1], 29.4 ± 0.88 µM corresponded to half-maximal inhibition (IC50) and the “SI (DU145)” value was determined as 3.14. Besides, the IC50 in series [2] (setting [6]) is 64.59 ± 0.33 µM. In addition, the “SI (HepG2)” value in series [2] was 1.43. In series [3], inhibition was half-maximal at 15.4 ± 0.48 µM (IC50) and the “SI (MDA-MB-231)” value is reported as 6.00. In addition, half-maximal inhibition in series [4] (IC50) was put at 92.55 ± 0.42 µM.

Consider `COc1cc(-c2ccccc2OC)cc(-c2cc(Cl)sc2Cl)n1` [6e, 2-(2,5-dichlorothiophen-3-yl)-6-methoxy-4-(2-methoxyphenyl)pyridine], for which the melting point fell in the range of 135 to 136 °C.

Compound `COc1cccc(-c2cc(OC)nc(-c3cc(Cl)sc3Cl)c2)c1` [6f, 2-(2,5-dichlorothiophen-3-yl)-6-methoxy-4-(3-methoxyphenyl)pyridine] registered a melting point of 156 to 157 °C. In series [1], the IC50 was found to be 18.45 ± 0.02 µM and the “SI (DU145)” value is recorded as 5.68. The same compound displayed an IC50 in series [2] (setting [6]) of 38.5 ± 0.62 µM. Further, the “SI (HepG2)” value in series [2] is recorded as 2.73. Further, in series [3], the IC50 stood at 64.39 ± 0.28 µM and the “SI (MDA-MB-231)” value is given as 1.63. Inhibition in series [4] was half-maximal at 104.8 ± 0.71 µM (IC50).

On to `COc1cc(-c2cccc([N+](=O)[O-])c2)cc(-c2cc(Cl)sc2Cl)n1` [6g, 2-(2,5-dichlorothiophen-3-yl)-6-methoxy-4-(3-nitrophenyl)pyridine], for which the melting point was 182 to 183 °C. In series [1], 25.4 ± 0.38 µM corresponded to half-maximal inhibition (IC50) and the “SI (DU145)” value was determined as 3.33. Moreover, 39.43 ± 0.09 µM corresponded to half-maximal inhibition in series [2] (setting [6]) (IC50). Moreover, the “SI (HepG2)” value in series [2] was 2.14. Besides, in series [3], half-maximal inhibition (IC50) was put at 18.3 ± 0.34 µM and the “SI (MDA-MB-231)” value stood at 4.61. Moreover, the IC50 in series [4] stood at 84.56 ± 0.4 µM.

Source of the values: PMC6891325, “The Synthesis, Characterization, Cytotoxic Activity Assessment and Structure-Activity Relationship of 4-Aryl-6-(2,5-dichlorothiophen-3-yl)-2-methoxypyridine-3-carbonitriles” (Molecules, 2019).
